Measured values taken from patent US20240124418A1 (BioTheryX, Inc., priority 2020, published 2024).

Assays:
TNF-α = test: Cell-based TNF-α inhibition assay (LPS-induced PBMCs, Meso Scale); settings: PBMC, PBMCs pretreated 1 h, LPS 100 ng/mL 18-24 h, percentage of stimulated DMSO control; for inhibition at 0.1 µM: compound concentration 0.1 μM; for inhibition at 1 µM: compound concentration 1 μM
In short: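 Thawed primary PBMCs (200,000 cells/well, RPMI 1640 with 10% FBS) were pretreated with compound for 1 h, then stimulated with 100 ng/mL LPS for 18–24 h. Supernatant TNF-α was measured by Meso Scale, and activity was expressed as percent inhibition relative to the stimulated DMSO control.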

PDE4B = target: T1, PDE4B (Homo sapiens, UniProt Q07343); test: Protein degradation assay, western blot, PDE4B in A549 cells; type: cell-based; settings: 24 h treatment, 'as high as about' = upper value for the group, read-out: PDE4B degradation relative to DMSO
T1 construct: endogenous in cells; host or cells: A549
T1 sequence (Q07343 whole entry): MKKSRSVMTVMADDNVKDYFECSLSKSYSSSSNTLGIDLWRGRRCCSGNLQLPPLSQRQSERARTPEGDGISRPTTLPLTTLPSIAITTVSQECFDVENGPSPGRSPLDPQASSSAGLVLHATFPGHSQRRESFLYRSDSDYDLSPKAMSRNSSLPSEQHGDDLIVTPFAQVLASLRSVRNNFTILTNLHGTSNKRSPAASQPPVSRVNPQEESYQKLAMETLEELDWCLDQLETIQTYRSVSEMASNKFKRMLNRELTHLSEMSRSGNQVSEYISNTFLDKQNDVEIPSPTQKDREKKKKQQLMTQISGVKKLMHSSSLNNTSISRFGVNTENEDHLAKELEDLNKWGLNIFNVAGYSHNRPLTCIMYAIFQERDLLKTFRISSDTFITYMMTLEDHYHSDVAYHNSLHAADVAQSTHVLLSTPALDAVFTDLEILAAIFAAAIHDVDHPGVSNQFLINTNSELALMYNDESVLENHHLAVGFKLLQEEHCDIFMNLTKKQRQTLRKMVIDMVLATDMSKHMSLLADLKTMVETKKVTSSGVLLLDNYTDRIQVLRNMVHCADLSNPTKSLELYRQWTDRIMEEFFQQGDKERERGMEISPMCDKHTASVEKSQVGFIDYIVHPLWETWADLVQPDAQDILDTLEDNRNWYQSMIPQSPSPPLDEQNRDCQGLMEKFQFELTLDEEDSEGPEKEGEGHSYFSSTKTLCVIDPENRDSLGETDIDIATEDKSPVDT
Description: Example B2. Protein Degradation Assay
A549 cells were grown in RPMI 1640 media supplemented with 10% fetal bovine serum, streptomycin, and penicillin. The cells were plated in 6-well plates at 300,000 cells/well in the growth media. After overnight incubation, the cells were treated with DMSO (control) or a compound at predetermined concentrations (e.g., 10 nM, 100 nM, 1 μM, 3 μM, or 10 μM) for 24 h at 37° C. under 5% CO2. Whole cell extracts were prepared using an immunoprecipitation (IP) lysis buffer. The cells were washed once in PBS, and the cell pellets were resuspended in the IP lysis buffer and incubated for 15 min on ice. Cells debris was removed by centrifugation and the cleared whole cell lysates were transferred to new tubes for further analysis.
For a western blot analysis, the whole cell protein extracts were separated on 4-12% SDS-polyacrylamide gels, transferred to nitrocellulose, and probed with primary antibodies. Membranes were subsequently washed and probed with IRDYE® secondary antibodies. The signals were detected using an ODYSSEY® Imaging System. The antibodies used in the assay included anti-PDE4B antibody; anti-PDE4D antibodies (top, bottom, and short isoform); β-actin mouse monoclonal antibody; IRDYE® 680RD goat anti-rabbit antibody; and IRDYE® 800CW goat anti-mouse antibody. The compounds provided herein are PDE4 protein degraders.

Row | Dmax (PDE4B) [%] | SMILES | inhibition at 0.1 µM (TNF-α) [%] | inhibition at 1 µM (TNF-α) [%]
1 | ≤ 70 | CCOc1cc([C@@H](CS(C)(=O)=O)N2C(=O)c3cccc(NC(=O)COCCOCCOCCOCCNc4cccc5c4C(=O)N(C4CCC(=O)NC4=O)C5=O)c3C2=O)ccc1OC (stereo partly drawn) [Compound A4, 14-((2-(2,6-Dioxopiperidin-3-yl)-1,3-dioxoisoindolin-4-yl)amino)-N-(2-((S)-1-(3-ethoxy-4-methoxyphenyl)-2-(methylsulfonyl)ethyl)-1,3-dioxoisoindolin-4-yl)-3,6,9,12-tetraoxatetradecan-1-amide] | ≥ 60 | 
2 | ≤ 70 | CCOc1cc([C@@H](CS(C)(=O)=O)N2C(=O)c3cccc(NC(=O)CCOCCOCCNc4cccc5c4C(=O)N(C4CCC(=O)NC4=O)C5=O)c3C2=O)ccc1OC (stereo partly drawn) [Compound A9, 3-(2-(2-((2-(2,6-Dioxopiperidin-3-yl)-1,3-dioxoisoindolin-4-yl)amino)-ethoxy)ethoxy)-N-(2-((S)-1-(3-ethoxy-4-methoxyphenyl)-2-(methylsulfonyl)ethyl)-1,3-dioxoisoindolin-4-yl)propanamide] | ≥ 60 | ≥ 60
3 | ≤ 70 | CCOc1cc([C@@H](CS(C)(=O)=O)N2C(=O)c3cccc(NC(=O)CCOCCOCCOCCNc4cccc5c4C(=O)N(C4CCC(=O)NC4=O)C5=O)c3C2=O)ccc1OC (stereo partly drawn) [Compound A10, 3-(2-(2-(2-((2-(2,6-Dioxopiperidin-3-yl)-1,3-dioxoisoindolin-4-yl)amino)ethoxy)-ethoxy)ethoxy)-N-(2-((S)-1-(3-ethoxy-4-methoxyphenyl)-2-(methylsulfonyl)ethyl)-1,3-dioxoisoindolin-4-yl)propanamide] | < 20 | < 20
4 | ≤ 70 | CCOc1cc([C@@H](CS(C)(=O)=O)N2C(=O)c3cccc(NC(=O)CC4CN(Cc5ccc(OCc6scc7c6CN(C6CCC(=O)NC6=O)C7=O)cc5)CCO4)c3C2=O)ccc1OC (stereo partly drawn) [Compound A40, 2-{4-[(4-{[5-(2,6-Dioxopiperidin-3-yl)-4-oxo-4H,5H,6H-thieno[3,4-c]pyrrol-1-yl]methoxy}phenyl)methyl]morpholin-2-yl}-N-{2-[(1S)-1-(3-ethoxy-4-methoxyphenyl)-2-methanesulfonylethyl]-1,3-dioxo-2,3-dihydro-1H-isoindol-4-yl}acetamide] | ≥ 60 | ≥ 60
5 | ≤ 70 | CCOc1cc([C@@H](CS(C)(=O)=O)N2C(=O)c3cccc(NC(=O)CCOCCOCCNCc4ccc(OCc5scc6c5CN(C5CCC(=O)NC5=O)C6=O)cc4)c3C2=O)ccc1OC (stereo partly drawn) [Compound A41, 3-[2-(2-{[(4-{[5-(2,6-Dioxopiperidin-3-yl)-4-oxo-4H,5H,6H-thieno[3,4-c]pyrrol-1-yl]methoxy}phenyl)methyl]amino}ethoxy)ethoxy]-N-{2-[(1S)-1-(3-ethoxy-4-methoxyphenyl)-2-methanesulfonylethyl]-1,3-dioxo-2,3-dihydro-1H-isoindol-4-yl}propanamide] | 40 to 60 | ≥ 60

The next lines start with the compound.

Row | SMILES | Dmax (PDE4B) [%] | inhibition at 0.1 µM (TNF-α) [%] | inhibition at 1 µM (TNF-α) [%]
6 | CCOc1cc([C@@H](CS(C)(=O)=O)N2C(=O)c3cc(CCCCCCCN4CCC(c5cc(F)cc6c5CN(C5CCC(=O)NC5=O)C6=O)CC4)cc(NC(C)=O)c3C2=O)ccc1OC (stereo partly drawn) [Compound A1, N-(6-(7-(4-(2-(2,6-Dioxopiperidin-3-yl)-6-fluoro-1-oxoisoindolin-4-yl)piperidin-1-yl)heptyl)-2-((S)-1-(3-ethoxy-4-methoxyphenyl)-2-(methylsulfonyl)ethyl)-1,3-dioxoisoindolin-4-yl)acetamide] | ≤ 70 | ≥ 60 | 
7 | CCOc1cc([C@@H](CS(C)(=O)=O)N2C(=O)c3cc(CCCCCCCC4CCN(c5cccc6c5C(=O)N(C5CCC(=O)NC5=O)C6=O)CC4)cc(NC(C)=O)c3C2=O)ccc1OC (stereo partly drawn) [Compound A8, N-(6-(7-(1-(2-(2,6-Dioxopiperidin-3-yl)-1,3-dioxoisoindolin-4-yl)piperidin-4-yl)-heptyl)-2-((S)-1-(3-ethoxy-4-methoxyphenyl)-2-(methylsulfonyl)ethyl)-1,3-dioxoisoindolin-4-yl)acetamide] | ≤ 70 | ≥ 60 | ≥ 60
8 | CCOc1cc([C@@H](CS(C)(=O)=O)N2C(=O)c3cccc(NC(=O)CCCCCCCCN4CCC(c5cc(F)cc6c5CN(C5CCC(=O)NC5=O)C6=O)CC4)c3C2=O)ccc1OC (stereo partly drawn) [Compound A13, 9-(4-(2-(2,6-Dioxopiperidin-3-yl)-6-fluoro-1-oxoisoindolin-4-yl)piperidin-1-yl)-N-(2-((S)-1-(3-ethoxy-4-methoxyphenyl)-2-(methylsulfonyl)ethyl)-1,3-dioxoisoindolin-4-yl)nonanamide] | ≤ 70 | ≥ 60 | 
9 | CCOc1cc([C@@H](CS(C)(=O)=O)N2C(=O)c3cccc(NC(=O)CCCCCCCCC4CCN(c5cccc6c5C(=O)N(C5CCC(=O)NC5=O)C6=O)CC4)c3C2=O)ccc1OC (stereo partly drawn) [Compound A15, 9-{1-[2-(2,6-Dioxopiperidin-3-yl)-1,3-dioxo-2,3-dihydro-1H-isoindol-4-yl]piperidin-4-yl}-N-{2-[(1S)-1-(3-ethoxy-4-methoxyphenyl)-2-methanesulfonylethyl]-1,3-dioxo-2,3-dihydro-1H-isoindol-4-yl}nonanamide] | ≤ 70 | 40 to 60 | ≥ 60
10 | CCOc1cc([C@@H](CS(C)(=O)=O)N2C(=O)c3cccc(NC(=O)CCCCCCCCN4CCC(C#Cc5cc6c(cc5F)C(=O)N(C5CCC(=O)NC5=O)C6)CC4)c3C2=O)ccc1OC (stereo partly drawn) [Compound A20, 9-(4-{2-[2-(2,6-Dioxopiperidin-3-yl)-6-fluoro-1-oxo-2,3-dihydro-1H-isoindol-5-yl]ethynyl}piperidin-1-yl)-N-{2-[(1S)-1-(3-ethoxy-4-methoxyphenyl)-2-methanesulfonylethyl]-1,3-dioxo-2,3-dihydro-1H-isoindol-4-yl}nonanamide] | ≤ 70 | ≥ 60 | ≥ 60
11 | CCOc1cc([C@@H](CS(C)(=O)=O)N2C(=O)c3cccc(NC(=O)CCCCCCCN4CCC(c5cc6c(cc5F)C(=O)N(C5CCC(=O)NC5=O)C6)CC4)c3C2=O)ccc1OC (stereo partly drawn) [Compound A22, 8-{4-[2-(2,6-Dioxopiperidin-3-yl)-6-fluoro-1-oxo-2,3-dihydro-1H-isoindol-5-yl]piperidin-1-yl}-N-{2-[(1S)-1-(3-ethoxy-4-methoxyphenyl)-2-methanesulfonylethyl]-1,3-dioxo-2,3-dihydro-1H-isoindol-4-yl}octanamide] | ≤ 70 | ≥ 60 | ≥ 60
12 | Cc1ncsc1-c1ccc(CNC(=O)[C@@H]2C[C@@H](O)CN2C(=O)[C@@H](NC(=O)CCCCCCCCCCOc2cc(C(=O)Nc3c(Cl)cncc3Cl)ccc2OC(F)F)C(C)(C)C)cc1 [Compound B21, (2S,4R)-1-((S)-2-(11-(5-((3,5-dichloropyridin-4-yl)carbamoyl)-2-(difluoromethoxy)phenoxy)undecanamido)-3,3-dimethylbutanoyl)-4-hydroxy-N-(4-(4-methyl-thiazol-5-yl)benzyl)pyrrolidine-2-carboxamide] | ≤ 70 |  | 
